Reference: patent publication US20160257651A1, “NOVEL COMPOUND WITH ANTIBACTERIAL ACTIVITY” (priority 2013, published 2016)
≈ marks a conversion by molar mass, not a printed value. Read-outs that look alike come from different tables or passages of the source.

Legend:
E. faecalis 36-15722 = assay: MIC against Enterococcus bacteria; type: cell-based, Enterococcus faecalis; details: E. faecalis 36-15722, quinolone-resistant, ParC 80Ile, GyrA 84Ile
Protocol: (§1) Antibacterial activities of the compound J-131CP against Enterococcus bacteria (Enterococcus faecium and Enterococcus faecalis) were examined by the following methods.
(§2) The compound J-131CP and quinolones were prepared in the same manner as that of Test Example 1-1.
(§3) Cell suspensions were prepared in the same manner as that of Test Example 1-1 described in the section of measurement of MIC in Test Example 1-1, except that the Enterococcus bacterium strains mentioned in Table 8 were used instead of Staphylococcus aureus, and MICs of the compound J-131CP and quinolones as control were determined for the strains in the same manner as that of Test Example 1-1 described in the section of measurement of MIC in Test Example 1-1. In Table 8, the amino acid substitution mutations in QRDR of the strains are underlined.

E. faecalis NCTC12201 = assay: MIC against Enterococcus bacteria; type: cell-based; details: quinolone-susceptible
Protocol: as §1, §2, §3

S. pneumoniae BCLSP37 = assay: MIC against pneumococcus, CAMHB with 5 mass % LHB; type: cell-based, Streptococcus pneumoniae; details: quinolone-resistant, ParC 79Phe, GyrA 85Lys
Protocol: (§4) The S. pneumoniae strains used for this test belong to any one of the categories of penicillin-susceptible pneumococcus (penicillin-susceptible Streptococcus pneumoniae, PSSP), penicillin-intermediate pneumococcus (penicillin-intermediate Streptococcus pneumoniae, PISP), and penicillin-resistant pneumococcus (penicillin-resistant Streptococcus pneumoniae, PRSP).
(§5) The lysed horse blood was prepared by adding sterilized water to horse sterile defibered blood (produced by Nippon Bio-Supp. Center) at a ratio of 1:1, subjecting the mixture to freezing and thawing 5 times, then centrifuging the mixture twice at 10,000 rpm for 20 minutes, and filtering the supernatant through a filter.
(§6) The S. pneumoniae strains mentioned in Table 11 were each cultured overnight at 37° C. on a blood agar medium as stationary culture. The blood agar medium was prepared by adding 5 mass % ovine sterile defibered blood (produced by Nippon Bio-Supp. Center) to a heart infusion agar medium (produced by EIKEN CHEMICAL). Each S. pneumoniae strain cultured overnight at 37° C. as stationary culture was further subcultured overnight at 37° C. on fresh blood agar medium as stationary culture. After completion of the culture, cells of each pneumococcus strain were collected with a swab, and suspended in physiological saline, and the suspension was adjusted with physiological saline to show absorbance of 0.08 to 0.13 at 625 nm as measured with an absorbance meter (produced by Amersham), and further diluted 200 times with CAMHB containing 5 mass % LHB.
(§7) In Table 11, the amino acid substitution mutations in QRDR of the strains are underlined.

S. pneumoniae KBSP11 = assay: MIC against pneumococcus, CAMHB with 5 mass % LHB; type: cell-based, Streptococcus pneumoniae
Protocol: as §4, §5, §6, §7

E. faecium NCTC12202 = assay: MIC against Enterococcus bacteria; type: cell-based, Enterococcus faecium
Protocol: as §1, §2, §3

E. faecium RPR2 = assay: MIC against Enterococcus bacteria; type: cell-based, Enterococcus faecium
Protocol: as §1, §2, §3

[1] = tested on: S. aureus FDA209P (ATCC 6538P); assay: microbe, parasite or virus in culture; type: cell-based, Staphylococcus aureus; details: quinolone-susceptible MSSA, ParC 80S, GyrA 84S
Protocol: (§8) Then, the cell suspension was diluted 500 times with CAMHB mentioned above.

S. aureus Mu50 = assay: microbe, parasite or virus in culture; type: cell-based, Staphylococcus aureus; details: for MIC ratio (Mu50 MIC/FDA209P MIC): MIC for S. aureus Mu50 / MIC for S. aureus FDA209P; for MIC: S. aureus Mu50, quinolone-resistant MRSA, ParC S80F, GyrA S84L
Protocol: as §8

E. coli strain 1709 = assay: Antibacterial activity against Escherichia coli
From the text: (§9) The numerical values in the tables indicate MIC (mg/L), Res means resistant bacterium, and Sus means susceptible bacterium.
(§10) Antibacterial activities against Escherichia coli of the compounds shown Table 19 were examined by the following method.
(§11) After completion of the culture, the cells were suspended in fresh TBS to prepare a cell suspension showing an absorbance of 0.3 at 578 nm.

E. coli strain 1708 = assay: Antibacterial activity against Escherichia coli
From the text: as §9, §10, §11

[2] = tested on: E. coli strain 1709 plus PABN; assay: Antibacterial activity against Escherichia coli in combination with efflux pump inhibitor PAβN; details: E coli plus PABN 40 mg/L, strain 1709, Quinolone Sus
From the text: as §9, §10, §11

[3] = tested on: E. coli strain 1708 plus PABN; assay: as above; details: E coli plus PABN 40 mg/L, strain 1708, Quinolone Res
From the text: as §9, §10, §11

[4] = Enterococcus faecalis, 3615722, read-out: MIC
[5] = Enterococcus faecalis, NCTC 12201 / VRE
[6] = Streptococcus pneumoniae, BCLSP37, S. pneumoniae BCLSP37, PSSP, read-out: MIC
[7] = Enterococcus faecium, NCTC 12202 / VRE
[8] = Staphylococcus aureus, ATCC 6538P / FDA209P / MSSA, read-out: MIC

Row | Compound | MIC (E. faecalis 36-15722; [4]) [µg/mL] | MIC (E. faecalis NCTC12201; [5]) [µg/mL] | MIC (S. pneumoniae BCLSP37; [6]) [µg/mL] | MIC (S. pneumoniae KBSP11; Streptococcus pneumoniae, PRSP) [µg/mL] | MIC (E. faecium NCTC12202; [7]) [µg/mL] | MIC (E. faecium RPR2; Enterococcus faecium, RPR2) [µg/mL] | MIC [1, 8] [µg/mL] | MIC ratio (Mu50 MIC/FDA209P MIC) (S. aureus Mu50) | MIC (S. aureus Mu50; Staphylococcus aureus, MRSA) [µg/mL] | MIC (E. coli strain 1709) [µg/mL] | MIC (E. coli strain 1708) [µg/mL] | MIC [2] | MIC [3] [µg/mL] | other results
1 | CC1NCc2cc(-c3cc4c(cc3F)c(CO)cc(=O)n4C3CC3)ccc21 (stereo not shown) [J-144, 1-cyclopropyl-6-fluoro-4-(hydroxymethyl)-7-(1-methylisoindolin-5-yl)hydroquinolin-2-one] | 0.5 (≈ 1.37 µM) | 0.5 (≈ 1.37 µM) | 0.5 (≈ 1.37 µM) | 0.25 (≈ 0.686 µM) | 8 (≈ 22 µM) | 4 (≈ 11 µM) | 0.5 (≈ 1.37 µM) | 2 | 1 (≈ 2.74 µM) |  |  |  |  | 
2 | CC1COc2c(-c3ccc(O)cc3)c(F)cc3c(CO)cc(=O)n1c23 (stereo not shown) [J-149, 9-fluoro-7-(hydroxymethyl)-10-(4-hydroxyphenyl)-3-methyl-2H-[1,4]oxazino[2,3,4-ij]quinolin-5(3H)-one] | 0.5 (≈ 1.46 µM) | 0.5 (≈ 1.46 µM) | 8 (≈ 23.4 µM) | 4 (≈ 11.7 µM) | 128 (≈ 375 µM) | 16 (≈ 46.9 µM) | 0.5 (≈ 1.46 µM) | 1 | 0.5 (≈ 1.46 µM) |  |  |  |  | 
3 | CC(O)c1cc(=O)n(C2CC2)c2cc(-c3ccc4c(c3)CNC4C)c(F)cc12 (stereo not shown) [J-144M] | 2 (≈ 5.28 µM) | 1 (≈ 2.64 µM) |  |  |  |  | 0.5 (≈ 1.32 µM) |  | 4 (≈ 10.6 µM) | 4 (≈ 10.6 µM) | 128 (≈ 338 µM) |  |  | 
4 | COc1c(-c2ccc(O)cc2)c(F)cc2c(CO)cc(=O)n(C3CC3)c12 [J-156] | 2 (≈ 5.63 µM) | 2 (≈ 5.63 µM) | 2 (≈ 5.63 µM) | 4 (≈ 11.3 µM) |  |  | 0.5 (≈ 1.41 µM) |  | 0.5 (≈ 1.41 µM) | 128 (≈ 360 µM) | 128 (≈ 360 µM) | 0.1 µg/mL | 2 | 
5 | NCc1cc(=O)n(C2CC2)c2cc(-c3ccc(O)cc3)c(F)cc12 [J-139, 4-(aminomethyl)-1-cyclopropyl-6-fluoro-7-(4-hydroxyphenyl)hydroquinolin-2-one] | 4 (≈ 12.3 µM) | 1 (≈ 3.08 µM) | 4 (≈ 12.3 µM) | 1 (≈ 3.08 µM) | 8 (≈ 24.7 µM) | 8 (≈ 24.7 µM) | 0.5 (≈ 1.54 µM) | 1 | 0.5 (≈ 1.54 µM) |  |  |  |  | 
6 | O=c1cc(CO)c2cc(F)c(-c3ccc(O)cc3)c(F)c2n1C1CC1 [J-155] | 1 (≈ 2.91 µM) | 1 (≈ 2.91 µM) | 1 (≈ 2.91 µM) | 12 (≈ 35 µM) | 16 (≈ 46.6 µM) | 8 (≈ 23.3 µM) | 0.25 (≈ 0.728 µM) |  | 0.13 (≈ 0.379 µM) | 8 (≈ 23.3 µM) | 128 (≈ 373 µM) | ≦0.06 mg/L | 0.5 | 
7 | O=c1cc(CO)c2cc(F)c(-c3ccccc3)cc2n1C1CC1 [J-168] |  |  |  |  |  |  | 2 (≈ 6.47 µM) |  | 2 (≈ 6.47 µM) | 16 (≈ 51.7 µM) | 128 (≈ 414 µM) | ≦0.06 mg/L | 0.5 | 
8 | O=c1cc(CO)c2cc(F)c(-c3ccc(O)cc3)c(Cl)c2n1C1CC1 [J-161] | 1 (≈ 2.78 µM) | 1 (≈ 2.78 µM) | 4 (≈ 11.1 µM) | 2 (≈ 5.56 µM) | 16 (≈ 44.5 µM) | 8 (≈ 22.2 µM) | 0.25 (≈ 0.695 µM) |  | 0.5 (≈ 1.39 µM) | 16 (≈ 44.5 µM) | 128 (≈ 356 µM) | 0.13 µg/mL | 1 | 
9 | Nc1ccc(-c2cc3c(cc2F)c(CO)cc(=O)n3C2CC2)cc1 [J-166] |  |  |  |  |  |  |  |  |  | 8 (≈ 24.7 µM) | 128 (≈ 395 µM) | ≦0.06 mg/L | 0.5 | MIC (E. faecalis 36-15722): 2 µg/mL (≈ 6.17 µM); MIC (E. faecalis NCTC12201; E. faecalis NCTC12201, VRE): 1 µg/mL (≈ 3.08 µM); MIC (S. pneumoniae BCLSP37; S. pneumoniae BCLSP37, PSSP): 2 µg/mL (≈ 6.17 µM); MIC (S. pneumoniae KBSP11; S. pneumoniae KBSP11, PRSP, quinolone-susceptible): 2 µg/mL (≈ 6.17 µM); MIC (E. faecium NCTC12202; E. faecium NCTC12202, VRE, quinolone-susceptible): 16 µg/mL (≈ 49.3 µM); MIC (E. faecium RPR2; E. faecium RPR2, quinolone-resistant, ParC 82Ile, GyrA 84Ile 88Lys): 8 µg/mL (≈ 24.7 µM); MIC [1]: 1 µg/mL (≈ 3.08 µM); MIC (S. aureus Mu50): 1 µg/mL (≈ 3.08 µM)
10 | Nc1ccc(-c2cc3c(cc2F)c(CO)cc(=O)n3C2CC2)cc1 [J-132CP, 7-(4-aminophenyl)-1-cyclopropyl-6-fluoro-4-(hydroxymethyl)hydroquinolin-2-one] | 2 (≈ 6.17 µM) | 2 (≈ 6.17 µM) | 4 (≈ 12.3 µM) | 2 (≈ 6.17 µM) | 16 (≈ 49.3 µM) | 8 (≈ 24.7 µM) | 0.5 (≈ 1.54 µM) | 1 | 0.5 (≈ 1.54 µM) |  |  |  |  | 
11 | NOCc1cc(=O)n(C2CC2)c2cc(-c3ccc(O)cc3)c(F)cc12 [J-174] | 8 (≈ 23.5 µM) | 4 (≈ 11.8 µM) |  |  |  |  | 2 (≈ 5.88 µM) |  | 1 (≈ 2.94 µM) | 64 (≈ 188 µM) | 128 (≈ 376 µM) | 0.5 µg/mL | 4 | 
12 | O=c1cc(CO)c2cc(F)c(-c3ccc(O)c(O)c3)cc2n1C1CC1 [J-176] | 2 (≈ 5.86 µM) | 2 (≈ 5.86 µM) | 8 (≈ 23.4 µM) | 4 (≈ 11.7 µM) | 8 (≈ 23.4 µM) | 4 (≈ 11.7 µM) | 2 (≈ 5.86 µM) |  | 1 (≈ 2.93 µM) | 32 (≈ 93.7 µM) | 128 (≈ 375 µM) |  |  | 
13 | O=c1cc(CO)c2ccc(-c3ccc(O)cc3)c(F)c2n1C1CC1 [J-154, 1-cyclopropyl-8-fluoro-4-(hydroxymethyl)-7-(4-hydroxyphenyl)hydroquinolin-2-one] | 2 (≈ 6.15 µM) | 4 (≈ 12.3 µM) | 8 (≈ 24.6 µM) | 8 (≈ 24.6 µM) | 16 (≈ 49.2 µM) | 8 (≈ 24.6 µM) | 0.5 (≈ 1.54 µM) | 0.5 | 0.25 (≈ 0.768 µM) |  |  |  |  | 
